Where two headings read alike, the source gives them in different places.

One assay addresses T1, H3 receptor (Cavia porcellus, UniProt Q9JI35).
T1 construct: the longitudinal muscle layer and adhering myenteric plexus was teased away; from tissue; host or cells: ileal longitudinal muscle with adhering myenteric plexus of male Dunkin-Hartley guinea pigs
Put plainly: H3 receptor bioassay (functional assay), guinea pig ileal longitudinal muscle myenteric plexus. In kind it is cell-based. Conditions: for Kb: read-out: pKB (functional assay) (converted). As for the experimental part: The biological activity of the compounds of the examples was measured using the ileal longitudinal muscle, myenteric plexus assay described by Paton and Aboo Zar (J. Physiol. 194, 13-33 (1968)). Male Dunkin-Hartley guinea pigs (250-300 g) were employed. Briefly, a 50 cm portion of ileum proximal to the caecum was removed, after discarding the terminal 20 cm. Ileal segments (3 cm) were cleaned by passing Krebs-Henseleit buffer containing 3 μM mepyramine gently through the ileum using a Pasteur pipette (size: 13.8 cm length, 0.65 cm diameter). To avoid unnecessary damage to the tissue, Krebs-Henseleit buffer was passed through the ileal segment, while it was lying horizontally on a petri dish. Therefore, the ileum was not over-distended and the buffer flowed through with ease. Each segment was then passed over a Pasteur pipette and the longitudinal muscle layer and adhering myenteric plexus was teased away using moist cotton wool, by stroking tangentially away from the mesenteric attachment. The tissues were suspended in 20 ml organ baths containing Krebs-Henseleit buffer at 37±1° C. and gassed with […]. The tissues were ligated to two parallel stainless steel wires, situated between two platinum electrodes (0.76 cm length, 0.06 cm diameter). All measurements were recorded isometrically (Grass FTO3 transducer). Following an initial loading tension of 1 g, the tissues were stimulated with electrical pulses at a frequency of 0.1 Hz and a pulse duration of 0.5msec, as described by Kosterlitz & Watt (1968). Initially, the tissues were stimulated at supramaximal (1.3 fold times maximal) voltage for a period of 30 min and then the tissues were washed and re-stimulated. A "sighter dose" of the selective histamine H3 -receptor agonist, R-(α)-methylhistamine(0.3 μM) (Arrang et al., 1987), was administered. Upon generation of response, the "sighter dose" was removed from the tissues by "washout" (6 washes over 60 min) and during this period the electrical stimulation was switched off. The tissues were then re-stimulated and allowed to stabilise prior to the addition of drug treatments, which were allocated on a randomised block basis to the organ baths. Following the incubation period, a single cumulative E/[A] curve was obtained. The experimental E/[A] curve data was expressed as the percentage inhibition of the peak height of electrically-stimulated contraction. Antagonist affinity values were calculated from the degree of rightward shift of the R-(α)-methylhistamine E/[A] curves using Schild's methods (Arunlatcshama & Schild, 1949).
(§1) Typical variance in the functional assay is ±0.15 log units. Typical variance in the binding assay is ±0.12 log units. This means that if the discrepancy between the two assays is greater than about 0.5 log units, then this difference on average is significant.

The target in the next assay is T2, Histamine H3 (Cavia porcellus, UniProt Q9JI35).
T2 construct: ileum longitudinal muscle myenteric plexus membranes; from tissue; host or cells: ileum longitudinal muscle myenteric plexus membranes of male Dunkin Hartley guinea pigs
T2 sequence (Q9JI35 whole entry): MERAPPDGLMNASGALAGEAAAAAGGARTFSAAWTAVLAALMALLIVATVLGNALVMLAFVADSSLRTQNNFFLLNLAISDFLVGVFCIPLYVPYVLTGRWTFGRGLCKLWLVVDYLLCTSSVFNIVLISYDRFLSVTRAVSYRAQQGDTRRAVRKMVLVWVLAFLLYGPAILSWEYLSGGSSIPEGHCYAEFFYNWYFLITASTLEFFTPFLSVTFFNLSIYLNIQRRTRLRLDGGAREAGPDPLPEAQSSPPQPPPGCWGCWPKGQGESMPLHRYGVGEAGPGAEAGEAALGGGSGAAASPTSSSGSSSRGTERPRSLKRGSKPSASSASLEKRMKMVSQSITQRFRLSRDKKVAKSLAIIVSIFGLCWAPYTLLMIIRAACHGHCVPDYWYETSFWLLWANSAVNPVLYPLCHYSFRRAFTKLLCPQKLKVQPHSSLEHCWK
As to the kind of experiment: Histamine H3 radioligand binding assay, [3H]-R-α-methylhistamine, guinea pig ileum longitudinal muscle myenteric plexus membranes. As for the experimental part: Histamine H3 Radioligand Binding Assay
Male Dunkin Hartley guinea pigs (200-300 g) were used. The small intestine was rapidly removed (cut ~5 cm from caecum and 5 cm from stomach) and placed in ice-cold 20 mM Hepes-NaOH buffer (pH7.4 at 21±3° C.). The tissue was cut into ~10 cm segments, flushed through with ice-cold 20 mM Hepes-NaOH buffer and placed in a beaker containing fresh buffer at 4° C. 10 cm segments of ileum were threaded onto a glass pipette and the longitudinal muscle myenteric plexus was peeled away from the circular muscle using damp cotton-wool. Longitudinal muscle myenteric plexus was immediately placed in ice-cold Viaspan® solution (~100 ml for tissue from 3 guinea pigs) and placed in the refrigerator for 24 hours.
Pre-soaked tissue was weighed and minced with scissors. The tissue was then homogenised in Viaspan® using a polytron (Kinematica AG; PT-DA 3020/2TS, 3×~1-2 s). 50 ml of 500 mM Tris HCl (pH6.9 at 21±3° C.) was added to the tissue and the mixture centrifuged at 39,800×g for 12 min at 4° C. The supernatant was discarded and rehomogenised in 100 ml ice-cold 20 mM Hepes-NaOH buffer (pH7.4 at 21±3° C.) using a teflon-in-glass homogeniser (setting 10; 3×). The homogenate was recentrifuged at 39,800×g and the pellet resuspended in 20 mM Hepes-NaOH buffer (pH7.4 at 21±3° C.), to a tissue concentration of 50 mg.ml^-1, using a polytron (Brinkman, PT10, 3×~1 s).
Guinea pig ileum longitudinal muscle myenteric plexus membranes (400 μl) were incubated for 165 min at 21±3° C. in a final volume of 500 μl with 20 mM Hepes-NaOH buffer containing [^3 H]-R-α-methylhistamine (50 μl; 3 nM) and competing compound. Total and non-specific binding of [^3 H]-R-α-methylhistamine were defined using 50 μl of buffer and 50 μl of 10 μM thioperamide, respectively. The assay was terminated by rapid filtration through Whatman GF/B filters, presoaked (2 hr) in 0. 1% polyethyleneimine,using a Brandell Cell Harvester. The filters were washed (3×3 ml) with ice-cold 50 mM Tris-HCl (pH6.9 at 21±3° C.), transferred into scintillation vials, 5 ml liquid scintillation cocktail was added and after 4 hours the bound radioactivity was determined by counting (4 min) in a Beckman liquid scintillation counter.
Data are analysed using GraphPad prism and the general equation for a competition curve with variable Hill slope (nH).
Y=Non-specific binding+(Total binding-Non-specific binding)/1+10^((logIC.sbsp.50^-X).n.sbsp.H^)
X is the log concentration of competing compound, Y is the binding obtained at each concentration of X, pIC50 is the concentration of the competitor required to compete for half of the specific binding.
The IC50 is converted to the K1 using the Cheng Prusoff equation, […]
IC50 is the concentration of competitor required to compete for half the specific binding, L is the radioligand concentration used, KD is the equilibrium dissociation constant for the radioligand determined by saturation experiments.
as §1

[1] abbreviates: antagonism of R-(α)-methylhistamine E/[A] curve, Schild's methods, electrically stimulated guinea pig ileum, variance ±0.15 log units.
Where [2] appears, read: 3 nM [3H]-R-α-methylhistamine, 165 min, 21±3° C., Cheng Prusoff, variance ±0.12 log units, read-out: pK1 (binding assay) (converted).
The mark [3] stands for this setting: 3 nM [3H]-R-α-methylhistamine, 165 min, 21±3° C., Cheng Prusoff, variance ±0.12 log units.

T1 sequence (Q9JI35 whole entry): as above

As for `O=S(=O)(NCCCCc1c[nH]cn1)NCc1ccc(C(F)(F)F)cc1` [Example 47, N-[4-(4(5)-Imidazoyl)butyl]-N'-(4-(trifluoromethyl)phenyl)methyl-sulfamide], the Kb at H3 receptor (setting [1]) is 3.31 nM. Moreover, the Ki at Histamine H3 (setting [2]) was 2.69 nM.

For the compound `O=S(=O)(CCc1ccc(Cl)cc1)NCCCCc1c[nH]cn1` [Example 55], the Kb at H3 receptor (setting [1]) is 6.03 nM. Besides, the Ki at Histamine H3 (setting [2]) was 7.76 nM.

For the compound `O=S(=O)(Cc1ccc(F)cc1)NCCCCc1c[nH]cn1` [Example 79, N-[4-(4(5)-Imidazoyl)butyl]-(4-fluoromethylphenyl)methanesulfonamide], the “pK1 (binding assay)” value at Histamine H3 (setting [3]) was found to be 8.13.

Regarding `O=S(=O)(Cc1ccc(-c2ccccc2)cc1)NCCCCc1c[nH]cn1` [Example 84, N-[4-(4(5)-Imidazoyl)butyl]-(4-biphenyl)methanesulfonamide], the Kb on H3 receptor (setting [1]) is 7.94 nM.

As to `O=S(=O)(NCCCCc1c[nH]cn1)NCC12CC3CC(CC(C3)C1)C2` [Example 52, N-[4-(4(5)-Imidazoyl)butyl]-N'-adamant-1-ylmethyl-sulfamide], the Ki at Histamine H3 (setting [2]) is 200 nM.

Take `O=S(=O)(NCCc1c[nH]cn1)NCc1ccc(Cl)cc1` [Example 37, N-[2-(4(5)-Imidazoyl)ethyl]-N'-(4-chlorophenyl)methyl-sulfamide]: the Kb at H3 receptor (setting [1]) is 1950 nM.

`O=S(=O)(Cc1ccc(Br)cc1)NCCCCc1c[nH]cn1` [Example 77, N-[4-(4(5)-Imidazoyl)butyl]-(4-bromophenyl)methanesulfonamide] showed a Ki on Histamine H3 of 3.09 nM.

As to `O=S(=O)(Cc1ccc(Cl)cc1)NCCCCCCCCCCc1c[nH]cn1` [Example 34, N-[10-(4(5)-Imidazoyl)decyl]-(4-chlorophenyl)methanesulfonamide], the “pK1 (binding assay)” value at Histamine H3 (setting [3]) is listed as 7.23.

In the case of `O=S(=O)(NCCc1c[nH]cn1)NCc1ccccc1` [Example 35, N-[2-(4(5)-Imidazoyl)ethyl]-N'-phenylmethyl-sulfamide], at H3 receptor (setting [1]), the “pKB (functional assay)” value was 5.59.

As to `O=S(=O)(NCCCc1c[nH]cn1)c1ccc2ccccc2c1` [Example 28, N-[3-(4(5)-Imidazoyl)propyl]-2-naphthalenesulfonamide], on H3 receptor (setting [1]), the Kb was 4070 nM.

On to `O=S(=O)(CCCC1CCCCC1)NCCc1c[nH]cn1` [Example 4, N-[2-(4(5)-Imidazoyl)ethyl]-3-cyclohexylpropanesulfonamide], for which, on H3 receptor (setting [1]), the Kb was 398 nM.

Regarding `O=S(=O)(Cc1ccc(Cl)cc1)NCCCc1c[nH]cn1` [Example 26, N-[3-(4(5)-Imidazoyl)propyl]-(4-chlorophenyl)methanesulfonamide], the Kb on H3 receptor (setting [1]) is 513 nM.

In the case of `CN(CCCCc1c[nH]cn1)S(=O)(=O)CCc1ccc(Cl)cc1` [Example 85, N-[4-(4(5)-Imidazoyl)butyl]-N-methyl-2-(4-chlorophenyl)ethanesulfonamide], at H3 receptor (setting [1]), the Kb was 8.91 nM.

In the case of `C[C@H](NS(=O)(=O)NCCCCc1c[nH]cn1)c1ccccc1` [Example 81, N-[4-(4(5)-Imidazoyl)butyl]-N'-(1S-phenylethyl)-sulfamide], the Ki on Histamine H3 (setting [2]) is 145 nM.

Turning to `O=S(=O)(NCCCc1c[nH]cn1)NCc1ccccc1` [Example 36, N-[3-(4(5)-Imidazoyl)propyl]-N'-phenylmethyl-sulfamide], on H3 receptor (setting [1]), the Kb is 692 nM.

As for `COC(=O)[C@H](Cc1c[nH]cn1)NS(=O)(=O)c1ccc2ccccc2c1` [Example 73, 3-(4(5)-Imidazoyl)-2S-(2-naphthalene)sulfonamino-propionic Acid Methyl Ester], on H3 receptor (setting [1]), the Kb was 10200 nM. Besides, the Emax on H3 receptor (guinea pig, printed beside 4.99 in the line of Example 73, read-out: α (functional assay)) was around 20%.

On to `O=S(=O)(NCCCCCc1c[nH]cn1)NCc1ccc(-c2ccccc2)cc1` [Example 82, N-[5-(4(5)-Imidazoyl)pentyl]-N'-(4-biphenyl)methyl-sulfamide], for which, at Histamine H3 (setting [2]), the Ki is 27.5 nM.

With `O=S(=O)(CCCc1ccccc1)NCCc1c[nH]cn1` [Example 18, N-[2-(4(5)-Imidazoyl)ethyl]-3-phenylpropanesulfonamide], the Kb at H3 receptor (setting [1]) is 162 nM.

With `O=S(=O)(NCCCCCCCCCCc1c[nH]cn1)NCc1ccc(Cl)cc1` [Example 40, N-[10-(4(5)-Imidazoyl)decyl]-N'-(4-chlorophenyl)methyl-sulfamide], the “pK1 (binding assay)” value on Histamine H3 (setting [3]) stood at 6.02.

Take `O=S(=O)(Cc1ccc(C(F)(F)F)cc1)NCCCCc1c[nH]cn1` [Example 78, N-[4-(4(5)-Imidazoyl)butyl]-(4-trifluoromethylphenyl)methanesulfonamide]: the Ki at Histamine H3 (setting [2]) is 3.55 nM.

`O=S(=O)(NCCc1c[nH]cn1)c1ccccc1` [Example 2, N-[2-(4(5)-Imidazoyl)ethyl]-benzenesulfonamide]: the Kb on H3 receptor (setting [1]) is 2400 nM.

Take `O=S(=O)(NCCCc1c[nH]cn1)c1ccccc1` [Example 27, N-[3-(4(5)-Imidazoyl)propyl]-benzenesulfonamide]: the Kb on H3 receptor (setting [1]) is 7760 nM.

For the compound `O=S(=O)(NCCc1c[nH]cn1)c1cccc2ccccc12` [Example 3, N-[2-(4(5)-Imidazoyl)ethyl]-1-naphthalenesulfonamide], the Kb at H3 receptor (setting [1]) was 537 nM.

`O=S(=O)(NCCc1c[nH]cn1)c1ccc(Cl)c(Cl)c1` [Example 16, N-[2-(4(5)-Imidazoyl)ethyl]-3,4-dichlorobenzenesulfonamide]: the Kb at H3 receptor (setting [1]) is 170 nM.

As to `O=S(=O)(N[C@@H]1C[C@H]1c1c[nH]cn1)c1ccc2ccccc2c1` (relative stereo) [Example 72, N-[2-(4(5)-Imidazoyl)-trans-cyclopropyl]-2-naphthalenesulfonamide], the Kb on H3 receptor (setting [1]) is 955 nM.

On to `O=S(=O)(CCc1ccccc1)NCCc1c[nH]cn1` [Example 17, N-[2-(4(5)-Imidazoyl)ethyl]-2-phenylethanesulfonamide], for which the Kb on H3 receptor (setting [1]) is 447 nM.

For the compound `C[C@@H](NS(=O)(=O)NCCCCc1c[nH]cn1)c1ccccc1` [Example 80, N-[4-(4(5)-Imidazoyl)butyl]-N'-(1R-phenylethyl)-sulfamide], the Ki on Histamine H3 (setting [2]) is 174 nM.

The values are drawn from US6080871A, “Sulfonamides and sulfamides as H3 receptor antagonists” (James Black Foundation Limited, priority 1996, dated 2000).
